What was measured:
[1] = target: Ba/F3 cells, ABL1 WT (Homo sapiens, UniProt P00519); assay: 96-well XTT cell survival assay, Ba/F3 ABL1 WT; type: cell-based; details: 72 hours, read-out: ABL1 WT XTT [Ba/F3] IC50
Outline: (§1)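 Ba/F3 cells carrying wild-type or T315I ABL1 were seeded at 5000-8000 per well with graded compound concentrations in duplicate and grown 72 hours at 37° C. Survival was read by XTT/PMS reduction after a further 2-6 h, as absorbance at 405 nm with 650 nm background correction.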

[2] = target: T1, unphosphorylated T315I Abl kinase domain (Mus musculus, UniProt P00520, T315I); assay: c-Abl T315I 0P bioassay (pyruvate kinase/lactate dehydrogenase coupled enzyme assay); type: biochemical; details: zero phosphorylation state (0P), 10 μM ATP, read-out: AbI T315I 0P IC50
T1 construct: purified and unphosphorylated T315I Abl kinase domain; made in house; host or cells: E. coli BL21(DE3) (Codon+RIL or pSA0145 strain)
T1 sequence (P00520 242-493 T315I limits assumed): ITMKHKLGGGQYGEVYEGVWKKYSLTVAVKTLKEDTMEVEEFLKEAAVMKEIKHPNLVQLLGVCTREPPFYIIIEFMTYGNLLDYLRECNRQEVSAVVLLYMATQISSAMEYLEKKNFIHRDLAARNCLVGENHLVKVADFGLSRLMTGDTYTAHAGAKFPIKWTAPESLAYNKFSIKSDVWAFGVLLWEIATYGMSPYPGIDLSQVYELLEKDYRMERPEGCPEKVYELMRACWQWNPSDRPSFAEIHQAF

[3] = target: Ba/F3 cells, ABL1 T315I (Homo sapiens, UniProt P00519, T315I, cells depend on it); assay: 96-well XTT cell survival assay, Ba/F3 ABL1 T315I; type: cell-based; details: 72 hours, read-out: ABL1 T315I XTT [Ba/F3] IC50
Outline: as §1

Row | SMILES | IC50 [2] | GI50 [1] | GI50 [3]
1 | COc1ccccc1-c1n[nH]c2ncc(-c3cccc(C(O)C(=O)NC4CCN(C)CC4)c3)cc12 (stereo not drawn) | < 50 nM | > 1000 nM | > 1000 nM
2 | COc1ccccc1-c1n[nH]c2ncc(-c3cccc(C(O)C(=O)N(C)C)c3)cc12 (stereo not drawn) | < 50 nM | < 1000 nM | < 1000 nM
3 | COC(=O)C1=C(C)NC(=O)NC1c1cccc(-c2cnc3[nH]cc(-c4ccccc4OC)c3c2)c1 (stereo not drawn) | < 50 nM | > 1000 nM | > 1000 nM
4 | COc1ccccc1-c1c[nH]c2ncc(-c3cccc(C4NC(=O)NC(C)=C4C(=O)N(C)C)c3)cc12 (stereo not drawn) | < 50 nM | > 1000 nM | > 1000 nM
5 | COc1ccccc1-c1n[nH]c2ncc(-c3cccc(C(O)C(=O)N(C)CCN(C)C)c3)cc12 (stereo not drawn) | < 50 nM | < 1000 nM | < 1000 nM
6 | CCN(CC)CCN(CC)C(=O)C(O)c1cccc(-c2cnc3[nH]nc(-c4ccccc4OC)c3c2)c1 (stereo not drawn) | < 50 nM | < 1000 nM | < 1000 nM
7 | COc1ccccc1-c1n[nH]c2ncc(-c3cccc(C(O)C(=O)N4CCC(O)C4)c3)cc12 (stereo not drawn) | < 50 nM | > 1000 nM | > 1000 nM
8 | COc1ccccc1-c1n[nH]c2ncc(-c3cccc(C(O)C(=O)N4CCC(O)CC4)c3)cc12 (stereo not drawn) | < 50 nM | > 1000 nM | > 1000 nM
9 | COc1ccccc1-c1n[nH]c2ncc(-c3cccc(C(O)C(=O)N4CCC(N(C)C)C4)c3)cc12 (stereo not drawn) | < 50 nM | < 1000 nM | < 1000 nM
10 | COc1ccccc1-c1n[nH]c2ncc(-c3cccc(C(O)C(=O)N4CCC[C@@H]4CO)c3)cc12 (stereo partly drawn) | < 50 nM | < 1000 nM | < 1000 nM
11 | COC[C@H]1CCCN1C(=O)C(O)c1cccc(-c2cnc3[nH]nc(-c4ccccc4OC)c3c2)c1 (stereo partly drawn) | < 50 nM | < 1000 nM | > 1000 nM
12 | COc1ccccc1-c1n[nH]c2ncc(-c3cccc(C(C)O)c3)cc12 (stereo not drawn) | < 50 nM | < 1000 nM | < 1000 nM
13 | COc1ccccc1-c1n[nH]c2ncc(-c3cccc([C@@H](C)O)c3)cc12 | < 50 nM | < 1000 nM | < 1000 nM
14 | COc1ccccc1-c1n[nH]c2ncc(-c3cccc(C(C)(O)C(=O)N(C)C)c3)cc12 (stereo not drawn) | < 50 nM | > 1000 nM | > 1000 nM
15 | COc1ccccc1-c1n[nH]c2ncc(-c3cccc(C(C)(O)C(=O)N(C)CCN(C)C)c3)cc12 (stereo not drawn) | < 50 nM | > 1000 nM | > 1000 nM
16 | COc1ccccc1-c1n[nH]c2ncc(-c3cccc(C(C)(O)C(=O)N4CC(O)C4)c3)cc12 (stereo not drawn) | < 50 nM | > 1000 nM | > 1000 nM
17 | COc1ccccc1-c1n[nH]c2ncc(-c3cccc(C(OC)C(=O)N(C)C)c3)cc12 (stereo not drawn) | < 50 nM | < 1000 nM | < 1000 nM
18 | COc1ccccc1-c1n[nH]c2ncc(-c3cccc(C(OC)C(=O)N(C)CCN(C)C)c3)cc12 (stereo not drawn) | < 50 nM | < 1000 nM | < 1000 nM
19 | COc1ccccc1-c1n[nH]c2ncc(-c3cccc(C(N)C(=O)N(C)C)c3)cc12 (stereo not drawn) | < 50 nM | < 1000 nM | < 1000 nM
20 | COc1ccccc1-c1n[nH]c2ncc(-c3cccc(C(N)C(=O)N(C)CCN(C)C)c3)cc12 (stereo not drawn) | < 50 nM | > 1000 nM | > 1000 nM

Row | SMILES | IC50 [2] | GI50 [1] | GI50 [3]
21 | COc1ccccc1-c1n[nH]c2ncc(-c3cccc(C(N)C(=O)N4CC(O)C4)c3)cc12 (stereo not drawn) | < 50 nM | > 1000 nM | > 1000 nM
22 | COc1ccccc1-c1n[nH]c2ncc(-c3cccc(C(=O)C(=O)N(C)C)c3)cc12 | < 50 nM | > 1000 nM | > 1000 nM
23 | COc1ccccc1-c1n[nH]c2ncc(-c3cccc(C(=O)C(=O)N(C)CCN(C)C)c3)cc12 | < 50 nM | < 1000 nM | < 1000 nM
24 | COc1ccccc1-c1n[nH]c2ncc(-c3cccc(C(=O)C(=O)N4CC(O)C4)c3)cc12 | < 50 nM | > 1000 nM | > 1000 nM
25 | COc1ccccc1-c1n[nH]c2ncc(-c3cccc(C(O)c4ncco4)c3)cc12 (stereo not drawn) | < 50 nM | < 1000 nM | > 1000 nM
26 | CN(C)C(=O)C(O)c1cncc(-c2cnc3[nH]cc(-c4ccc5c(c4)OCO5)c3c2)c1 (stereo not drawn) | < 50 nM | < 1000 nM | > 1000 nM
27 | CN(C)C(=O)C(O)c1cncc(-c2cnc3[nH]cc(-c4ccc(CO)cc4)c3c2)c1 (stereo not drawn) | < 50 nM | > 1000 nM | > 1000 nM
28 | CN(C)C(=O)C(O)c1cncc(-c2cnc3[nH]cc(-c4ccc(C(N)=O)cc4)c3c2)c1 (stereo not drawn) | < 50 nM | > 1000 nM | > 1000 nM
29 | CN(C)C(=O)C(O)c1cncc(-c2cnc3[nH]cc(-c4cccc5c4OC(F)(F)O5)c3c2)c1 (stereo not drawn) | < 50 nM | < 1000 nM | > 1000 nM
30 | CN(C)C(=O)C(O)c1cncc(-c2cnc3[nH]cc(-c4ccnn4CC(F)(F)F)c3c2)c1 (stereo not drawn) | > 500 nM | > 1000 nM | > 1000 nM
31 | COc1ccccc1-c1c[nH]c2ncc(-c3cnc(N)c(C(O)C(=O)N(C)C)c3)cc12 (stereo not drawn) | < 50 nM | < 1000 nM | < 1000 nM
32 | CN(C)C(=O)C(O)c1cncc(-c2cnc3[nH]cc(-c4ccnn4CCO)c3c2)c1 (stereo not drawn) | 50 to 500 nM | > 1000 nM | > 1000 nM
33 | COc1ccccc1-c1c[nH]c2ncc(-c3cncc(C(O)C4CC4)c3)cc12 (stereo not drawn) | < 50 nM | < 1000 nM | < 1000 nM
34 | COc1ccccc1-c1c[nH]c2ncc(-c3cncc(C(O)CC(C)C)c3)cc12 (stereo not drawn) | < 50 nM | < 1000 nM | < 1000 nM
35 | CN(C)C(=O)C(O)c1cc(-c2cnc3[nH]cc(-c4ccccc4F)c3c2)cnc1N (stereo not drawn) | < 50 nM | < 1000 nM | < 1000 nM
36 | CN(C)C(=O)C(O)c1cncc(-c2cnc3[nH]cc(-c4ccnn4-c4ccccc4)c3c2)c1 (stereo not drawn) | < 50 nM | < 1000 nM | > 1000 nM
37 | COc1ccccc1-c1c[nH]c2ncc(-c3cncc(C(O)C(N)=O)c3)cc12 (stereo not drawn) | < 50 nM | > 1000 nM | > 1000 nM
38 | COc1ccccc1-c1n[nH]c2ncc(-c3cccc(CO)c3)cc12 | > 500 nM | < 1000 nM | < 1000 nM
39 | COc1ccccc1-c1n[nH]c2ncc(-c3cccc(CO)n3)cc12 | < 50 nM | < 1000 nM | > 1000 nM

The next lines start with results.

Row | IC50 [2] | SMILES | GI50 [1] | GI50 [3]
40 | 50 to 500 nM | CN(C)C(=O)C(O)c1cncc(-c2cnc3[nH]cc(-c4ccncc4)c3c2)c1 (stereo not drawn) | > 1000 nM | > 1000 nM
41 | > 500 nM | CN(C)C(=O)C(O)c1cncc(-c2cnc3[nH]cc(-c4cccc(S(C)(=O)=O)c4)c3c2)c1 (stereo not drawn) | > 1000 nM | > 1000 nM
42 | < 50 nM | CN(C)C(=O)C(O)c1cncc(-c2cnc3[nH]cc(-c4ccc(F)cc4)c3c2)c1 (stereo not drawn) | > 1000 nM | > 1000 nM
43 | 50 to 500 nM | CN(C)C(=O)C(O)c1cncc(-c2cnc3[nH]cc(-c4cccnc4)c3c2)c1 (stereo not drawn) | > 1000 nM | > 1000 nM
44 | 50 to 500 nM | CN(C)C(=O)C(O)c1cncc(-c2cnc3[nH]cc(-c4ccc(N(C)C)cc4)c3c2)c1 (stereo not drawn) | > 1000 nM | > 1000 nM
45 | < 50 nM | CN(C)C(=O)C(O)c1cncc(-c2cnc3[nH]cc(-c4ccccc4F)c3c2)c1 (stereo not drawn) | < 1000 nM | < 1000 nM
46 | < 50 nM | CCc1ccccc1-c1c[nH]c2ncc(-c3cncc(C(O)C(=O)N(C)C)c3)cc12 (stereo not drawn) | < 1000 nM | < 1000 nM
47 | < 50 nM | CN(C)C(=O)C(O)c1cncc(-c2cnc3[nH]cc(-c4ccccc4OC(F)(F)F)c3c2)c1 (stereo not drawn) | < 1000 nM | > 1000 nM
48 | < 50 nM | CSc1ccccc1-c1c[nH]c2ncc(-c3cncc(C(O)C(=O)N(C)C)c3)cc12 (stereo not drawn) | < 1000 nM | < 1000 nM
49 | < 50 nM | COc1ncccc1-c1c[nH]c2ncc(-c3cncc(C(O)C(=O)N(C)C)c3)cc12 (stereo not drawn) | < 1000 nM | > 1000 nM
50 | < 50 nM | CN(C)C(=O)C(O)c1cncc(-c2cnc3[nH]cc(-c4ccccc4Cl)c3c2)c1 (stereo not drawn) | < 1000 nM | < 1000 nM
51 | < 50 nM | CN(C)C(=O)C(O)c1cncc(-c2cnc3[nH]cc(-c4cccc(N(C)C)c4)c3c2)c1 (stereo not drawn) | < 1000 nM | > 1000 nM
52 | < 50 nM | CN(C)C(=O)C(O)c1cncc(-c2cnc3[nH]cc(-c4ccn[nH]4)c3c2)c1 (stereo not drawn) | > 1000 nM | > 1000 nM
53 | < 50 nM | CN(C)C(=O)C(O)c1cncc(-c2cnc3[nH]cc(-c4ccno4)c3c2)c1 (stereo not drawn) | > 1000 nM | > 1000 nM
54 | < 50 nM | CN(C)C(=O)C(O)c1cncc(-c2cnc3[nH]cc(-c4cnc(N)s4)c3c2)c1 (stereo not drawn) | > 1000 nM | > 1000 nM
55 | < 50 nM | Cc1n[nH]cc1-c1c[nH]c2ncc(-c3cncc(C(O)C(=O)N(C)C)c3)cc12 (stereo not drawn) | > 1000 nM | > 1000 nM
56 | < 50 nM | Cc1n[nH]c(C)c1-c1c[nH]c2ncc(-c3cncc(C(O)C(=O)N(C)C)c3)cc12 (stereo not drawn) | > 1000 nM | > 1000 nM
57 | < 50 nM | CN(C)C(=O)C(O)c1cncc(-c2cnc3[nH]cc(-c4ccccc4OC4CC4)c3c2)c1 (stereo not drawn) | < 1000 nM | < 1000 nM
